Holding throughout (format): cell-based
The target in one test is T1, ER-α (Rattus norvegicus, UniProt P06211).
T1 construct: expressed in transfected cells
As to the kind of experiment: Transcriptional activation (luciferase) in HEK-293 cells. The method, then: (§1) Rat GR, MR, PR, ER-α and ER-β were individually cloned into a pCR3.1 vector backbone. Sequencing was performed to verify the absence of any mutations. HEK-293 cells were plated at 90,000 cells per well of a 24 well plate in Dulbecco's Minimal Essential Media supplemented with 5% charcoal-stripped FBS. […] Luciferase assays were performed 48 h after transfection. Transcriptional activation values are represented as firefly luciferase normalized to renilla luciferase.

In a further test the target is T2, GR (Rattus norvegicus, UniProt P06536).
T2 construct: expressed in transfected cells
T2 sequence (P06536 whole entry): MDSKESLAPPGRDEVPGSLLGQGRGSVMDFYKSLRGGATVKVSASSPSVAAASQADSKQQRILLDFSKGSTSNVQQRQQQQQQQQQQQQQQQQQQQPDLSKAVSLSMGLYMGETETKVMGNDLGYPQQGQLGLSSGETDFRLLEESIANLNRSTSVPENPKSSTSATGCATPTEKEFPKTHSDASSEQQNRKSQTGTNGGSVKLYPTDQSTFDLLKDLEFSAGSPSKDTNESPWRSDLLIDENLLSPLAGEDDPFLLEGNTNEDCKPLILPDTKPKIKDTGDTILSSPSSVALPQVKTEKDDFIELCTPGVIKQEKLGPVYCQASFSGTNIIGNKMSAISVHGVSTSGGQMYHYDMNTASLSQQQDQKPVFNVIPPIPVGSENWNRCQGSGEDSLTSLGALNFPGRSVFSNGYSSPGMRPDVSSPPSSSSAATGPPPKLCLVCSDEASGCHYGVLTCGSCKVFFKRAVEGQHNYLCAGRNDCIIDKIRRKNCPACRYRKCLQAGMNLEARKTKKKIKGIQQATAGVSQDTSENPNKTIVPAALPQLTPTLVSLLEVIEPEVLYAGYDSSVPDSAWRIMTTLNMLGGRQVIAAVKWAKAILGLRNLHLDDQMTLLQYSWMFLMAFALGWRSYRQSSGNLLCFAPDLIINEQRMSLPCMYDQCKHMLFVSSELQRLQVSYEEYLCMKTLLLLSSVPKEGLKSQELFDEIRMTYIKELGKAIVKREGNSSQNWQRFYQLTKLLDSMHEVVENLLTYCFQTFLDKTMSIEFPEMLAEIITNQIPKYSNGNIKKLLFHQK
The test is described as above. The method, then: as §1

In a further test the target is T3, MR (Rattus norvegicus, UniProt P22199).
T3 construct: expressed in transfected cells
T3 sequence (P22199 1-981): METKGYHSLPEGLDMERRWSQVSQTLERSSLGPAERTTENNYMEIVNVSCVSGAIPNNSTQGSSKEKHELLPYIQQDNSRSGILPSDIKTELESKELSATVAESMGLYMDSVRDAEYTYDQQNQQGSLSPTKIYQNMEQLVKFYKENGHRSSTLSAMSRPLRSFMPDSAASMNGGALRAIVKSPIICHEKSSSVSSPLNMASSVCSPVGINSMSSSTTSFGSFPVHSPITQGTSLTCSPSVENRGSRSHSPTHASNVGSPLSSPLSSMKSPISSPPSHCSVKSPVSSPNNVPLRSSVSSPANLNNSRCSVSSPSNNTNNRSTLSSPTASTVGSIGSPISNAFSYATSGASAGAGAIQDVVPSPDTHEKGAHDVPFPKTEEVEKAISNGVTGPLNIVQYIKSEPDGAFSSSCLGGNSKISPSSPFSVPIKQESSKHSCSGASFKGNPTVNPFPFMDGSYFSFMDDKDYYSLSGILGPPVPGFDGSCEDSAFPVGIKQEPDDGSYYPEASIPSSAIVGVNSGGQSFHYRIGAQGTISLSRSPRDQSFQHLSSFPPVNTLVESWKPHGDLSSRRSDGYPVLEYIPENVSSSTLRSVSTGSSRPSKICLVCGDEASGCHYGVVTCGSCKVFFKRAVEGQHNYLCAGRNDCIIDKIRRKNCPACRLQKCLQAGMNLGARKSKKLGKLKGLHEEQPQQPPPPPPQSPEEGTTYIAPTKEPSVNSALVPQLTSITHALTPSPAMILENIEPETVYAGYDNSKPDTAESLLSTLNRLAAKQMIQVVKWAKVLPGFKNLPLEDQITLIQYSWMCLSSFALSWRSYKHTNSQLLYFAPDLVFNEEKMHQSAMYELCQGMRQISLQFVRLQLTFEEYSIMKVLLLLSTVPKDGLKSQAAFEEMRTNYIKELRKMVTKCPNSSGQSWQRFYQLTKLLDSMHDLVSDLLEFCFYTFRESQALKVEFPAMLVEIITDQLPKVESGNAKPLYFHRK
The description is as above. The method, then: as §1

The target in a further test is T4, PR (Rattus norvegicus, UniProt Q63449).
T4 construct: expressed in transfected cells
T4 sequence (Q63449 1-923): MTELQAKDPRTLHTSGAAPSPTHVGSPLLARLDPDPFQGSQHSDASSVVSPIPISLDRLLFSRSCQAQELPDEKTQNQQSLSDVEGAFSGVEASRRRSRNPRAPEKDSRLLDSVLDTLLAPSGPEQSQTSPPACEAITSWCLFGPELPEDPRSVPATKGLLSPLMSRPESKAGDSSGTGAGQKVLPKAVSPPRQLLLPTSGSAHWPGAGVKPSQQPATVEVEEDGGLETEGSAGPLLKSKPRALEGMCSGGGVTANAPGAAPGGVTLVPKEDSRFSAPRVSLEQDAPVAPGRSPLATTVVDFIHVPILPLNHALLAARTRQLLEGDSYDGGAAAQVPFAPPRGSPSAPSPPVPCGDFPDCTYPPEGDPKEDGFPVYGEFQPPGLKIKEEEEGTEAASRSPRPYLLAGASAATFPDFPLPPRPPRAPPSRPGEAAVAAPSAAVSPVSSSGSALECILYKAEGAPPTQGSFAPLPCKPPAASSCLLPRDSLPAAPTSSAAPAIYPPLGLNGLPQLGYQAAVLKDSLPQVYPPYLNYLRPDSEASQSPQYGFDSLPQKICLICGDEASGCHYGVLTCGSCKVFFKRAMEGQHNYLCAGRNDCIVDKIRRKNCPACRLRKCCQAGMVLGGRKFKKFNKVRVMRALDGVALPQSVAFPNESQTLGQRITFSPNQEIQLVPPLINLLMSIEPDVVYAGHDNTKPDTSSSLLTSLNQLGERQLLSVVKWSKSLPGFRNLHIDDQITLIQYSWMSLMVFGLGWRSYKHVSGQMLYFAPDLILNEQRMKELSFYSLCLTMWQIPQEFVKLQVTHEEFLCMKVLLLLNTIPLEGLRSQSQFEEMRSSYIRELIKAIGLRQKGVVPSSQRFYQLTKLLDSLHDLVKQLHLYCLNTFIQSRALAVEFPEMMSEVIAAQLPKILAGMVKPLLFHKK
The test is described as above. The method, then: as §1

In a further test the test system is MCF-7-GFP cells. The following applies: 10 days. The method, then: After 6 days of treatment, cells were harvested, and the number of cells was counted. […] Medium was changed after 3 days and re-treated. Cells were fixed after 6 days of treatment and the cell viability was measured by SRB assay. […] Medium was changed, and the cells were re-treated on days 4 and 7. Medium was collected, pooled from triplicates, and stored in −80° C. After 10 days of treatment, cells were fixed, and cell viability was measured using SRB. MCF-7 cells stably transfected with GFP (MCF-7-GFP) were plated in growth medium. Twenty-four hours after plating, cells were fed with the conditioned medium obtained from patient-derived fibroblasts as indicated above. Cells were fed for 10 days with conditioned medium, with medium changed on days 4 and 7. After 10 days of treatment, cells were fixed, and the viability was measured by SRB assay. […] AR-positive, but ER-negative HCI-9 PDX was surgically implanted as 1 mm^3 fragments under the mammary fat pad in NSG mice (n=8-10/group). […] Tumor volume was measured thrice weekly. […] ER-α from HCI-13 was cloned into pCR3.1 vector. […] Twenty four hours after treatment cells were harvested and luciferase assay was performed. […] Values are expressed as average ±S.E. from n=3-4/data point.
Conditioned medium was replaced on days 4 and 7 and the cells were stained with SRB to measure viability.

[1] abbreviates: agonist mode, all tested concentrations.

T1 sequence (P06211 whole entry): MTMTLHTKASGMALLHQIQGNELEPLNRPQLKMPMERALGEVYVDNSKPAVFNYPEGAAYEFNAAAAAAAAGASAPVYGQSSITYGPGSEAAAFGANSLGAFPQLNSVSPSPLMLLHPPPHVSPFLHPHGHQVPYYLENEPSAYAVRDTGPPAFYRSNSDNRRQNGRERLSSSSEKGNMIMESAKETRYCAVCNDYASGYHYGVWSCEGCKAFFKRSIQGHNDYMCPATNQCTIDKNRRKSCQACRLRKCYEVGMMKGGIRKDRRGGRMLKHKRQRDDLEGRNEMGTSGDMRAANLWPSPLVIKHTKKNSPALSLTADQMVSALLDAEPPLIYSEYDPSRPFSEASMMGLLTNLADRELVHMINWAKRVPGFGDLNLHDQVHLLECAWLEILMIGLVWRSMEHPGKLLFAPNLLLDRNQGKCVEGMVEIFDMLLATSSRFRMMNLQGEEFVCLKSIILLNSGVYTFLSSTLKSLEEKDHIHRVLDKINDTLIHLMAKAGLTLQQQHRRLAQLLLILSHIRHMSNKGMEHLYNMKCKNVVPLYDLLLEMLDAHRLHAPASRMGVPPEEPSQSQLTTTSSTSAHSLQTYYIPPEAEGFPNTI

On to `C[C@](O)(COc1ccc(C#N)cc1)C(=O)Nc1ccc(C#N)c(Cl)c1` [Formula VIII, (S)—N-(3-chloro-4-cyanophenyl)-3-(4-cyanophenoxy)-2-hydroxy-2-methylpropanamide], for which the ER-α-mediated transactivation result at ER-α (agonist mode, highest tested concentration 1 μM) is on record as “failed to activate”. Also, the “17β-estradiol-induced ER-α activity” value on ER-α (antagonist mode) is “failed to alter”. The GR-mediated transactivation result on GR (setting [1]) is listed as “did not induce”. Also, on GR (antagonist mode), the “dexamethasone-induced GR-mediated transactivation” value is listed as “failed to alter”. On MR (setting [1]), the MR-mediated transactivation entry is “did not induce”. Moreover, the “aldosterone-induced MR-mediated transactivation” value at MR (antagonist mode) was “failed to alter”. At PR (agonist mode), the “fold weaker than the endogenous agonist for PR” value is on record as “greater than 10,000 fold”. The “increase of PR transactivation” value at PR (agonist mode, 1 μM) amounted to 3 fold. The “increase of PR transactivation” value on PR (agonist mode, 10 μM) is 8 fold. Also, on PR (antagonist mode), the “PR antagonist potency in comparison to Formula IX (times more potent)” value is given as 10 times; the “PR antagonist potency in comparison to R-enantiomer of Formula IX (times more potent)” value is reported as 100 times; the “PR antagonist potency in comparison to RU486 (fold weaker)” value is on record as “about 1,000 fold”; the “inhibition of PR activity, dose response” value was “potent partial inhibition”.
`C[C@](O)(COc1ccc(C#N)cc1)C(=O)Nc1ccc(C#N)c(C(F)(F)F)c1` [Formula IX, (S)—N-(4-Cyano-3-(trifluoromethyl)phenyl)-3-(4-cyanophenoxy)-2-hydroxy-2-methylpropanamide]: the “proliferation of MCF-7-GFP cells fed with conditioned medium of treated CAFs” value with MCF-7-GFP cells is “inhibited the proliferation”.

For the origin of these results see patent US20230172897A1, “METHODS OF TREATING BREAST CANCERS WITH SELECTIVE ANDROGEN RECEPTOR MODULATORS AND ADDITIONAL THERAPEUTIC AGENTS” (VERU, INC., priority 2021, published 2023).
